Experiments:
D04 melanoma cell line = assay: Cell viability assay (ATP quantitation); assay type: cell-based, human; settings: 50 nM, 5 days (120 hrs), vs non-targeting control
Procedure: (§1) EsiRNA, siRNA and ASO GapmeRs were transfected in a final concentration of 50 nM unless mentioned otherwise and the transfection reagent Lipofectamine 3000 (2 ul/ml) was added according to the manufacturer's instructions.
(§2) Dependent on cell doubling time, 0.7-2×10^^3 cells were seeded in 96 well plates. 1 day after seeding cells were incubated in media with oligonucleotide concentration and/or MEKi and transfection reagent. 3 (synergy experiments) or 5 (solely ASO) days after transfection Total luminescence was measured on the SynergyHT plate reader (BioTek) using Gen5 software.

MM415 melanoma cell line = assay: Cell viability assay (ATP quantitation); assay type: cell-based, human; settings: 50 nM, 5 days (120 hrs), vs non-targeting control
Procedure: as §1, §2

[1] = system: WM3211 melanoma cell line; assay: Cell viability assay (ATP quantitation); assay type: cell-based, human; settings: 50 nM, 5 days (120 hrs), vs non-targeting control
Procedure: as §1, §2

VMM39 melanoma cell line = assay: Cell viability assay (ATP quantitation); assay type: cell-based, human; settings: 50 nM, 5 days (120 hrs), vs non-targeting control
Procedure: as §1, §2

[2] = system: WM3629 melanoma cell line; assay: Cell viability assay (ATP quantitation); assay type: cell-based, human; settings: 50 nM, 5 days (120 hrs), vs non-targeting control
Procedure: as §1, §2

[3] = system: Sk-Mel-2 melanoma cell line; assay: Cell viability assay (ATP quantitation); assay type: cell-based, human; settings: 50 nM, 5 days (120 hrs), vs non-targeting control
Procedure: as §1, §2

[4] = system: AV5 primary melanoma cell line; assay: Cell viability assay (ATP quantitation); assay type: cell-based, human; settings: 50 nM, 5 days (120 hrs), vs non-targeting control
Procedure: as §1, §2

[5] = system: WM1366 melanoma cell line; assay: Cell viability assay (ATP quantitation); assay type: cell-based, human; settings: 50 nM, 5 days (120 hrs), vs non-targeting control
Procedure: as §1, §2

[6] = system: Sk-Mel-28 melanoma cell line; assay: Cell viability assay (ATP quantitation); assay type: cell-based, human; settings: 50 nM, 5 days (120 hrs), vs non-targeting control
Procedure: as §1, §2

[7] = system: Hs852.T primary melanoma cell line; assay: Cell viability assay (ATP quantitation); assay type: cell-based, human; settings: 50 nM, 5 days (120 hrs), vs non-targeting control
Procedure: as §1, §2

[8] = system: H1299 lung cancer cell line; assay: Cell viability assay (ATP quantitation); assay type: cell-based; settings: 50 nM, 5 days, vs non-targeting control
Procedure: as §1, §2

[9] = system: T98G Glioblastoma cell line; assay: Cell viability assay (ATP quantitation); assay type: cell-based; settings: 50 nM, 5 days, vs non-targeting control
Procedure: as §1, §2

[10] = system: H929 multiple myeloma cell line; assay: Cell viability assay (ATP quantitation); assay type: cell-based; settings: 50 nM, 5 days, vs non-targeting control
Procedure: as §1, §2

[11] = system: U138-MG Glioblastoma cell line; assay: Cell viability assay (ATP quantitation); assay type: cell-based; settings: 50 nM, 5 days, vs non-targeting control
Procedure: as §1, §2

[12] = system: A-172 Glioblastoma cell line; assay: Cell viability assay (ATP quantitation); assay type: cell-based; settings: 50 nM, 5 days, vs non-targeting control
Procedure: as §1, §2

[13] = system: L363 multiple myeloma cell line; assay: Cell viability assay (ATP quantitation); assay type: cell-based; settings: 50 nM, 5 days, vs non-targeting control
Procedure: as §1, §2

[14] = system: WM3060 melanoma cell line; assay: Cell viability assay (ATP quantitation); assay type: cell-based; settings: 50 nM, 5 days, vs non-targeting control
Procedure: as §1, §2

[15] = system: SW1271 lung cancer cell line; assay: Cell viability assay (ATP quantitation); assay type: cell-based; settings: 50 nM, 5 days, vs non-targeting control
Procedure: as §1, §2

[16] = system: Sk-N-AS Neuroblastoma cell line; assay: Cell viability assay (ATP quantitation); assay type: cell-based; settings: 50 nM, 5 days, vs non-targeting control
Procedure: as §1, §2

MM485 melanoma cell line = assay: Cell viability assay (ATP quantitation); assay type: cell-based; settings: 50 nM, 5 days, vs non-targeting control
Procedure: as §1, §2

[17] = system: Sk-Mel-5 melanoma cell line; assay: Cell viability assay (ATP quantitation); assay type: cell-based; settings: 50 nM, 5 days, vs non-targeting control
Procedure: as §1, §2

[18] = system: U87-MG Glioblastoma cell line; assay: Cell viability assay (ATP quantitation); assay type: cell-based; settings: 50 nM, 5 days, vs non-targeting control
Procedure: as §1, §2

[19] = system: H82 lung cancer cell line; assay: Cell viability assay (ATP quantitation); assay type: cell-based; settings: 50 nM, 5 days, vs non-targeting control
Procedure: as §1, §2

[20] = system: U20S osteosarcoma cell line; assay: Cell viability assay (ATP quantitation); assay type: cell-based; settings: 50 nM, 5 days, vs non-targeting control
Procedure: as §1, §2

[21] = system: SW480 colon carcinoma cell line; assay: Cell viability assay (ATP quantitation); assay type: cell-based; settings: 50 nM, 5 days, vs non-targeting control
Procedure: as §1, §2

[22] = system: HCT116 colon carcinoma cell line; assay: Cell viability assay (ATP quantitation); assay type: cell-based; settings: 50 nM, 5 days, vs non-targeting control
Procedure: as §1, §2

[23] = system: MM415RM trametinib resistant melanoma cell line; assay: Cell viability assay (ATP quantitation); assay type: cell-based; settings: 50 nM, 5 days, vs non-targeting control
Excerpt: (§3) Human melanoma cell line VMM39 was purchased from American Type Culture Collection (ATCC). Human melanoma cell lines D04, MM415, WM1366, WM3629, WM3211, Sk-Mel-2 and Sk-Mel-28 were a generous gift from Boris Bastian at the University of California, San Francisco. Primary human melanoma cell line Hs852.T was purchased from the Cell Culture Core Facility (CCCF) at the University of California, San Francisco. Primary human melanoma cell line AV5 was obtained from metastasis of a melanoma patient. All experimental protocols were approved by UCSF Human Research Protection Program Institutional Review Board (IRB #12-0948), all patients signed informed consent, and methods were carried out in accordance with relevant guidelines and regulations. Resistant cell lines DO4RM, MM415RM, Sk-Mel-2RM and WM3629RM were established as previously described. [Sanlorenzo, M. et al., The lincRNA MIRAT binds to IQGAPI and modulates the MAPK pathway in NRAS mutant melanoma. Sci Rep 8, 10902 (2018).] Primary human melanocytic cell lines (PHM) from infant foreskin of five healthy donors were available in our cell repository and pooled. Melanoma cell lines were maintained in RPMI 1640 media supplemented with 10% (vol/vol) heat inactivated fetal bovine serum. Melanocytes were maintained in M254 medium with HMGS supplements (1× final solution). All cell lines were incubated at 37° C. under 5% CO2.
as §1, §2

[24] = system: WM3629RM trametinib resistant melanoma cell line; assay: Cell viability assay (ATP quantitation); assay type: cell-based; settings: 50 nM, 5 days, vs non-targeting control
Excerpt: as §3, §1, §2

[25] = system: D04RM trametinib resistant melanoma cell line; assay: Cell viability assay (ATP quantitation); assay type: cell-based; settings: 50 nM, 5 days, vs non-targeting control
Excerpt: as §3, §1, §2

[26] = system: Sk-Mel-2-RM trametinib resistant melanoma cell line; assay: Cell viability assay (ATP quantitation); assay type: cell-based; settings: 50 nM, 5 days, vs non-targeting control
Excerpt: as §3, §1, §2

[27] = system: sarcoma cell line SK-LMS-1; assay: Cell viability assay (ATP quantitation); assay type: cell-based; settings: SK-LMS-1 sarcoma; 50 nM, 120 hrs; Lipofectamine3000 2 ul/ml; vs non-targeting control ASO
Procedure: as §1, §2
(§4) Cell viability was compared to treatment with non-targeting control ASO-treatment. Lipofectamine3000 concentration was 2 ul/ml.

[28] = system: hepatocellular carcinoma cell line HepG2; assay: Cell viability assay (ATP quantitation); assay type: cell-based; settings: 50 nM, 120 hrs, Lipofectamine3000 2 ul/ml, vs non-targeting control ASO
Procedure: as §1, §2, §4

Caspase 3+7 = assay: Caspase Glo 3/7 assay in D04 cell line; assay type: cell-based, human; settings: ASO 50 nM, 1 day, vs control ASOs
Procedure: Dependent on cell doubling time, 2-3×10^^3 cells were seeded in 96 well plates. 1 day after seeding cells were incubated in media with 50 nM oligonucleotide concentration and transfection reagent. 1 day after transfection Total luminescence was measured on the SynergyHT plate reader (BioTek) using Gen5 software. Experiments were performed in quadruplicates.

Sequence | cell viability decrease (D04 melanoma cell line) | cell viability decrease (MM415 melanoma cell line) | cell viability decrease [1] | cell viability decrease (VMM39 melanoma cell line) | cell viability decrease [2] | cell viability decrease [3] | cell viability decrease [4] | cell viability decrease [5] | cell viability decrease [6] | cell viability decrease [7] | cell viability decrease [8] | cell viability decrease [9] | cell viability decrease [10] | cell viability decrease [11] | cell viability decrease [12] | cell viability decrease [13] | cell viability decrease [14] | cell viability decrease [15] | cell viability decrease [16] | cell viability decrease (MM485 melanoma cell line) | other results
ATCATCTGGATTAGTG (chemistry not given here) [SEQ ID NO: 14, Antisense oligonucleotide targeting BX470102.3-008] | significant cell viability decrease | significant cell viability decrease | significant cell viability decrease | significant cell viability decrease | significant cell viability decrease | significant cell viability decrease | significant cell viability decrease | significant cell viability decrease | significant cell viability decrease | significant cell viability decrease | significant cell viability decrease | significant cell viability decrease | significant cell viability decrease | significant cell viability decrease | significant cell viability decrease | significant cell viability decrease | significant cell viability decrease | significant cell viability decrease | significant cell viability decrease | significant cell viability decrease | cell viability decrease [17]: significant cell viability decrease; cell viability decrease [18]: significant cell viability decrease; cell viability decrease [19]: significant cell viability decrease; cell viability decrease [20]: significant cell viability decrease; cell viability decrease [21]: significant cell viability decrease; cell viability decrease [22]: significant cell viability decrease; cell viability decrease [23]: significant cell viability decrease; cell viability decrease [24]: significant cell viability decrease; cell viability decrease [25]: significant cell viability decrease; cell viability decrease [26]: significant cell viability decrease
CTCATGAGCTGTCGTA (QIAGEN GapmeR, modification pattern not given here) [SEQ ID NO: 41, Antisense oligonucleotide targeting AC004540.4-001 and AC004540.4-002] | significant cell viability decrease | significant cell viability decrease | significant cell viability decrease | significant cell viability decrease | significant cell viability decrease | significant cell viability decrease | significant cell viability decrease | significant cell viability decrease | significant cell viability decrease | significant cell viability decrease |  |  |  |  |  |  |  |  |  |  | cell viability decrease [27]: significant cell viability decrease; cell viability decrease [28]: significant cell viability decrease
GACCGTAGTTAGAAGG (GapmeR, chemically modified, pattern not given here) [SEQ ID NO: 48, GapmeR antisense oligonucleotide targeting HNRNPA2/B1] | significant cell viability decrease |  |  |  |  |  |  |  |  |  |  |  |  |  |  |  |  |  |  |  | cell viability decrease (D04 melanoma cell line; listed as hnRNPA2/B1i): significant cell viability decrease; Caspase-3 &-7 activity increase (Caspase 3+7): 1.7 fold
GATCATTTAATTTGAC (QIAGEN GapmeR, modification pattern not given here) [SEQ ID NO: 18, Antisense oligonucleotide targeting RP11-7011.3-001, 002 and 003] | significant cell viability decrease | significant cell viability decrease | significant cell viability decrease | significant cell viability decrease | significant cell viability decrease | significant cell viability decrease |  | significant cell viability decrease | significant cell viability decrease | significant cell viability decrease | significant cell viability decrease | significant cell viability decrease | significant cell viability decrease | significant cell viability decrease | significant cell viability decrease | significant cell viability decrease | significant cell viability decrease | significant cell viability decrease | significant cell viability decrease | significant cell viability decrease | cell viability decrease [17]: significant cell viability decrease; cell viability decrease [18]: significant cell viability decrease; cell viability decrease [20]: significant cell viability decrease; cell viability decrease [21]: significant cell viability decrease; cell viability decrease [22]: significant cell viability decrease; cell viability decrease [23]: significant cell viability decrease; cell viability decrease [24]: significant cell viability decrease; cell viability decrease [25]: significant cell viability decrease; cell viability decrease [26]: significant cell viability decrease

— patent publication US20250197864A1, “LNCRNA TRANSCRIPTS IN MELANOMAGENESIS” (The Regents of the University of California, priority 2021, published 2025)
